Numbers after ± are expanded uncertainties.
Assay: excess molar enthalpy (molar enthalpy of mixing); xn = mol fraction of the nth substance listed
Settings: 308.15 K, 101 kPa, Liquid, Calvet calorimetry

| Structure (SMILES) | excess molar enthalpy (x2 = 0.126) | excess molar enthalpy (x2 = 0.2) | excess molar enthalpy (x2 = 0.33) | excess molar enthalpy (x2 = 0.435) | excess molar enthalpy (x2 = 0.499) | excess molar enthalpy (x2 = 0.601) | excess molar enthalpy (x2 = 0.701) | excess molar enthalpy (x2 = 0.802) | excess molar enthalpy (x2 = 0.901) | excess molar enthalpy (x2 = 0.113) | excess molar enthalpy (x2 = 0.297) | excess molar enthalpy (x2 = 0.401) | excess molar enthalpy (x2 = 0.515) | excess molar enthalpy (x2 = 0.6) | excess molar enthalpy (x2 = 0.703) | excess molar enthalpy (x2 = 0.825) | excess molar enthalpy (x2 = 0.9) |
| --- | --- | --- | --- | --- | --- | --- | --- | --- | --- | --- | --- | --- | --- | --- | --- | --- | --- |
| C1CCNCC1 [piperidine] + C1COCCN1 | 0.0251 ± 0.000956 kcal/mol | 0.0375 ± 0.0012 kcal/mol | 0.0531 ± 0.00167 kcal/mol | 0.0605 ± 0.00191 kcal/mol | 0.0631 ± 0.00191 kcal/mol | 0.0626 ± 0.00191 kcal/mol | 0.0564 ± 0.00167 kcal/mol | 0.0447 ± 0.00143 kcal/mol | 0.0261 ± 0.000956 kcal/mol |  |  |  |  |  |  |  |  |
| C1CCNCC1 [piperidine] + C1COCCO1 |  | 0.131 ± 0.00406 kcal/mol |  |  |  |  |  |  |  | 0.0853 ± 0.00263 kcal/mol | 0.167 ± 0.00526 kcal/mol | 0.188 ± 0.00574 kcal/mol | 0.195 ± 0.00598 kcal/mol | 0.186 ± 0.00574 kcal/mol | 0.159 ± 0.00502 kcal/mol | 0.108 ± 0.00335 kcal/mol | 0.0655 ± 0.00215 kcal/mol |

Source: the NIST ThermoML archive (doi:10.1021/je500088z)
